Test results from patent US20240327364A1, “THERAPEUTIC TARGETING OF GPR68 TO INDUCE FERROPTOSIS” (University Of Maryland, Baltimore, priority 2023, published 2024).

What was measured:
[1] = system: U87 glioblastoma cells; assay: Acid-induced calcium flux in U87 cells; format: cell-based, human; conditions: medium shifted from pH 7.8 to 6.4
Text: GPR68 is known to signal through Gq which results in a calcium flux out of the Endoplasmic reticulum. U87 glioblastoma cells were stained, using a calcium-sensitive vital dye Fluo-8, and stimulated with acidification of the media to pH6.4. The cells respond to the acidification with a burst of calcium release, this is inhibited by OGM2.
To determine if GBM cells respond to their own acidic extracellular milieu as a form of autocrine signaling, calcium release in response to acidification was measured. GPR68 is known to couple to the Gq subunit, which acts to release calcium from the ER in a PLC dependent pathway. The medium was shifted from pH 7.8 to 6.4, which triggered a rapid and robust calcium flux, as measured by the fluorescence intensity of calcium-sensitive dye Cal520-AM. This calcium flux was blocked by OGM2 and PLC inhibitor U73122. FIG. 50A, FIG. 50B, FIG. 50C and FIG. 50D.

[2] = system: WM115; assay: Scratch assay; format: cell-based, human; conditions: 20 hours, OGM2 5 uM
Method: (§1) Since there are numerous parallels are found between neural crest cells and cancer during migration, we examined whether OGM could inhibit the migration of cells in human melanoma cell lines (Oppitz et al., 2007; Schriek et al., 2005, Sinnberg et al., 2018). […] A2058. MeWo and WM115 cells were grown to confluence and a stripe of cells were denuded with a p200 pipette tip “scratch” and rinsed with PBS. Cells were treated with OGM or DMSO and incubated in low serum media. Imaging was done at 30 minutes after “scratch” and then 20 hours afterwards. Areas were then measured and normalized to the initial area.

[3] = system: MeWo; assay: Scratch assay; format: cell-based, human; conditions: 20 hours, OGM2 5 uM
Method: as §1

[4] = system: A2058; assay: Scratch assay; format: cell-based, human; conditions: 20 hours, OGM2 5 uM
[5] = system: endothelial cell (EC); assay: Acidification-induced endothelial cell dysfunction; format: cell-based; conditions: OGM2 3 uM; Ogerin 2 uM
Method: FIG. 34A through FIG. 34C: GPR68 plays a central role in acidification-induced endothelial cell (EC) dysfunction in vitro, and OGM2 abrogates EC dysfunction. […] These effects were abolished by OGM2 (OGM) at 3 uM and augmented by GPR68 positive allosteric modulator Ogerin (Og) at 2 uM. *P<0.05; Mann-Whitney test, n=5. FIG. 34C: Medium acidification reduced transendothelial resistance (TER), indicative of disruption of EC barrier function.

[6] = system: U87 spheroids; assay: GBM spheroid assay; format: cell-based, human
Method: One thousand cells per well were plated in an ultra-low attachment, round-bottomed, 96-well plate, and spheroids were allowed to form for 3 days. Wells were then exposed to concentrations of vehicle, OGM2 or TMZ or a combination for 3 days. Spheroids were imaged in brightfield at 10× using z-stacks that were collapsed into z-projections in the Gen5 software using the LionheartFx (BioTek™). Automated measurements of the spheroid area were obtained using Gen5 software.
Tumor spheroid cultures are a more physiological model of tumor growth than typical 2D cell culture. Temozolomide sensitive U87 (FIG. 20A) and Temozolomide insensitive U138 (FIG. 20B) glioblastoma cell lines were plated in low attachment round bottom 96-well plates and allowed to form tumor spheroids for 3 days (T0). At T0, spheroids were imaged using Lionheart™ (HCS) High-Content Imaging Systems (Biotek™) and then were exposed to increasing doses of either Temozolomide or OGM2. After 5 days of treatment the spheroids were imaged again (T5). The size (area) of the spheroids after 5 days of treatment was quantified, and the average size of the spheroids at TO is depicted in red.
A GPR68-positive allosteric modulator, Ogerin, was tested. U87glioblastoma cells were plated in low attachment round bottom 96-well plates and allowed to form tumor spheroids for 3 days (TO). These spheroids were treated with Vehicle (DMSO), 10 μM/20 μM Ogerin or 10 μM/20 μM Ogremorphin-2 (OGM2). The spheroids were placed in the Lionheart™ HCS equipped with environmental control (5% CO2 at 37° C.) and imaged every 12 hours.
Spheroids were formed over 3 days using low attachment 96-well round bottom plates and then treated with DMSO or OGM2 in either pH 8 buffered media or pH 6.2 buffered media and grown for 3 days. The size (area) of spheroids was measured in relative area units. […] This increase in growth was abrogated by OGM2.

[7] = system: HEK293; format: cell-based; conditions: human
Text: FIG. 59A through FIG. 59D: OGM2 causes specific cell death in glioblastoma cells.
Thus, in contrast to erastin, OGM2 induces ferroptosis selectively in cancer cells.

Question: With `COc1ccc2c(c1)CC[C@@H]1[C@@H]2CC[C@]2(C)[C@@H](NCCCCCCN3C(=O)C=CC3=O)CC[C@@H]12` [Compound U73122] as the compound, how does the acid-induced calcium flux [1] read?
Answer: The acid-induced calcium flux was “blocked”.

Question: Which results are given for `CCN(c1nc(N)c(C(=O)NC(=N)N)nc1Cl)C(C)C` [EIPA, reference compound]?
Answer: migration [2]: inhibited migration; migration [3]: not; migration [4]: inhibited migration

Question: Which acid-induced calcium flux [1] does the source give for `CCc1nn2c(C)cc(C)nc2c1Cc1ccc(-c2nnc(C3CCNCC3)o2)cc1` [NE52QQ, reference compound] here?
Answer: The acid-induced calcium flux was “not significant”.

Question: What does the source list for `Nc1nc(NCc2ccccc2)nc(-c2ccccc2CO)n1` [Ogerin, reference compound]?
Answer: acidic media (pH 6.5)-induced TNFα, VCAM1 and ICAM1 expression [5]: augmented; spheroid growth rate [6]: promoted U87 spheroids growth rate

Question: `CCOc1ccccc1-n1c(C(C)N2CCN(C(=O)COc3ccc(Cl)cc3)CC2)nc2ccccc2c1=O` (centres unmarked) [erastin, reference compound] was tested. Which “HEK293 cell viability / survival” value [7] did it give?
Answer: The value was “dramatically reduced HEK293 cell survival”.
